Entries after “also recorded” stand apart in the source; their conditions may differ. No end group written: not given here.
How the values were obtained:
[1] = on-resin intramolecular Suzuki-Miyaura biaryl stapling (i,i+4) between 6- or 7-bromo-Trp and aryl boronic acid/Bpin side chain; Pd2(dba)3 0.2 eq, sSPhos 0.4 eq, KF 4 eq, microwave 120 C 30 min; then TFA/TIS/H2O cleavage; settings: the molecule shown is the open-chain precursor, DME/EtOH/H2O 9:9:2, 16.7 mM, 0.5 h
Proteinase K = Proteinase K (2.5 µg mL−1) in Na2HPO4 buffer (100 mM, pH 7.4); settings: 25 °C, up to 120 min
[2] = not given; remark: listed apart in the source
[3] = not given; remark: listed apart in the source
β-catenin = molecular target: T1, β-catenin (Homo sapiens, UniProt P35222); experiment: direct fluorescence polarisation
T1 chain: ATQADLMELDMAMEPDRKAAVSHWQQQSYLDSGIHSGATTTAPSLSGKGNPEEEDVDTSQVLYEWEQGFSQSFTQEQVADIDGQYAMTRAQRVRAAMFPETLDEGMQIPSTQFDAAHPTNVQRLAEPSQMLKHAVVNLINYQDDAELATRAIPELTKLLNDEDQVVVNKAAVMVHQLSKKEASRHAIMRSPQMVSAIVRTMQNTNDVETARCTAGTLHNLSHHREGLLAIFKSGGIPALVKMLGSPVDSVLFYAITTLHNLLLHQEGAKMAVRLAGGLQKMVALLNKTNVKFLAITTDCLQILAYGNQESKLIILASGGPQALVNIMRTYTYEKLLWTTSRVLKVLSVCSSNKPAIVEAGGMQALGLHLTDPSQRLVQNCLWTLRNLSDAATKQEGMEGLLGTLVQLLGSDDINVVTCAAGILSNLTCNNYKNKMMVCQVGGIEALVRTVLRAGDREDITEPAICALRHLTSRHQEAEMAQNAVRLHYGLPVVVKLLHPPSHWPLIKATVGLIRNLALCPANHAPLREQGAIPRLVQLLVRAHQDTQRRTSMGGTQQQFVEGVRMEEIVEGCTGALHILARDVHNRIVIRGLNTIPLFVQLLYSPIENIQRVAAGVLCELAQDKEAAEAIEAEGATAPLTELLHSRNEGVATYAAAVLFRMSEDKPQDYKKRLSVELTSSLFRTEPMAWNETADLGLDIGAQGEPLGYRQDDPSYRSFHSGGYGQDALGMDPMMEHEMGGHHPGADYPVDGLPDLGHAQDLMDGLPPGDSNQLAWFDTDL

Molecule: CC[C@H](C)[C@H](NC(=O)[C@H](Cc1c[nH]c2c(Br)cccc12)NC(=O)[C@H](CCC(=O)OC(C)(C)C)NC(=O)[C@@H]1CCCN1C(=O)[C@H](CC(=O)NC(c1ccccc1)(c1ccccc1)c1ccccc1)NC(=O)[C@H](CCC(=O)OC(C)(C)C)NC(C)=O)C(=O)N[C@@H](CC(C)C)C(=O)N[C@@H](CC(=O)OC(C)(C)C)C(=O)N[C@@H](CCNC(=O)c1ccc(B(O)O)cc1)C(=O)N[C@@H](Cc1cn(C(c2ccccc2)(c2ccccc2)c2ccccc2)cn1)C(=O)N[C@H](C(=O)N[C@@H](CCC(=O)NC(c1ccccc1)(c1ccccc1)c1ccccc1)C(=O)N[C@@H](CCCNC(=N)NS(=O)(=O)c1c(C)c(C)c2c(c1C)CC(C)(C)O2)C(=O)N[C@H](C(=O)N[C@@H](CCSC)C(N)=O)C(C)C)C(C)C
- ring closure, overall yield ([1]; 26-membered ring): 9%

Molecule: CC[C@H](C)[C@H](NC(=O)[C@H](Cc1c[nH]c2c(Br)cccc12)NC(=O)[C@H](CCC(=O)OC(C)(C)C)NC(=O)[C@@H]1CCCN1C(=O)[C@H](CC(=O)NC(c1ccccc1)(c1ccccc1)c1ccccc1)NC(=O)[C@H](CCC(=O)OC(C)(C)C)NC(C)=O)C(=O)N[C@@H](CC(C)C)C(=O)N[C@@H](CC(=O)OC(C)(C)C)C(=O)N[C@@H](CCCCNC(=O)CCc1ccc(B(O)O)cc1)C(=O)N[C@@H](Cc1cn(C(c2ccccc2)(c2ccccc2)c2ccccc2)cn1)C(=O)N[C@H](C(=O)N[C@@H](CCC(=O)NC(c1ccccc1)(c1ccccc1)c1ccccc1)C(=O)N[C@@H](CCCNC(=N)NS(=O)(=O)c1c(C)c(C)c2c(c1C)CC(C)(C)O2)C(=O)N[C@H](C(=O)N[C@@H](CCSC)C(N)=O)C(C)C)C(C)C
- ring closure, overall yield ([1]; 30-membered ring): 14%

Molecule: CC[C@H](C)[C@H](NC(=O)[C@H](Cc1c[nH]c2c(Br)cccc12)NC(=O)[C@H](CCC(=O)OC(C)(C)C)NC(=O)[C@@H]1CCCN1C(=O)[C@H](CC(=O)NC(c1ccccc1)(c1ccccc1)c1ccccc1)NC(=O)[C@H](CCC(=O)OC(C)(C)C)NC(C)=O)C(=O)N[C@@H](CC(C)C)C(=O)N[C@@H](CC(=O)OC(C)(C)C)C(=O)N[C@@H](CCCNC(=O)c1ccc(B(O)O)cc1)C(=O)N[C@@H](Cc1cn(C(c2ccccc2)(c2ccccc2)c2ccccc2)cn1)C(=O)N[C@H](C(=O)N[C@@H](CCC(=O)NC(c1ccccc1)(c1ccccc1)c1ccccc1)C(=O)N[C@@H](CCCNC(=N)NS(=O)(=O)c1c(C)c(C)c2c(c1C)CC(C)(C)O2)C(=O)N[C@H](C(=O)N[C@@H](CCSC)C(N)=O)C(C)C)C(C)C
- ring closure, overall yield ([1]; 27-membered ring): 8%

Molecule: Ac-ENPEWILDKHVQRVM-NH2
- cleaved bond (Proteinase K): Leu-Asp; also recorded: Lys-His; also recorded: Gln-Arg

Molecule: CC[C@H](C)[C@H](NC(=O)[C@H](Cc1c[nH]c2c(Br)cccc12)NC(=O)[C@H](CCC(=O)OC(C)(C)C)NC(=O)[C@@H]1CCCN1C(=O)[C@H](CC(=O)NC(c1ccccc1)(c1ccccc1)c1ccccc1)NC(=O)[C@H](CCC(=O)OC(C)(C)C)NC(C)=O)C(=O)N[C@@H](CC(C)C)C(=O)N[C@@H](CC(=O)OC(C)(C)C)C(=O)N[C@@H](CCCCNC(=O)c1ccc(B(O)O)cc1)C(=O)N[C@@H](Cc1cn(C(c2ccccc2)(c2ccccc2)c2ccccc2)cn1)C(=O)N[C@H](C(=O)N[C@@H](CCC(=O)NC(c1ccccc1)(c1ccccc1)c1ccccc1)C(=O)N[C@@H](CCCNC(=N)NS(=O)(=O)c1c(C)c(C)c2c(c1C)CC(C)(C)O2)C(=O)N[C@H](C(=O)N[C@@H](CCSC)C(N)=O)C(C)C)C(C)C
- ring closure, overall yield ([1]; 28-membered ring): 11%

Molecule: CC[C@H](C)[C@H](NC(=O)[C@H](Cc1c[nH]c2cc(Br)ccc12)NC(=O)[C@H](CCC(=O)OC(C)(C)C)NC(=O)[C@@H]1CCCN1C(=O)[C@H](CC(=O)NC(c1ccccc1)(c1ccccc1)c1ccccc1)NC(=O)[C@H](CCC(=O)OC(C)(C)C)NC(C)=O)C(=O)N[C@@H](CC(C)C)C(=O)N[C@@H](CC(=O)OC(C)(C)C)C(=O)N[C@@H](CCNC(=O)c1ccc(B(O)O)cc1)C(=O)N[C@@H](Cc1cn(C(c2ccccc2)(c2ccccc2)c2ccccc2)cn1)C(=O)N[C@H](C(=O)N[C@@H](CCC(=O)NC(c1ccccc1)(c1ccccc1)c1ccccc1)C(=O)N[C@@H](CCCNC(=N)NS(=O)(=O)c1c(C)c(C)c2c(c1C)CC(C)(C)O2)C(=O)N[C@H](C(=O)N[C@@H](CCSC)C(N)=O)C(C)C)C(C)C
- ring closure, overall yield ([1]; 27-membered ring): 8%

Molecule: CC[C@H](C)[C@H](NC(=O)[C@H](Cc1c[nH]c2c(Br)cccc12)NC(=O)[C@H](CCC(=O)OC(C)(C)C)NC(=O)[C@@H]1CCCN1C(=O)[C@H](CC(=O)NC(c1ccccc1)(c1ccccc1)c1ccccc1)NC(=O)[C@H](CCC(=O)OC(C)(C)C)NC(C)=O)C(=O)N[C@@H](CC(C)C)C(=O)N[C@@H](CC(=O)OC(C)(C)C)C(=O)N[C@@H](Cc1ccc(B2OC(C)(C)C(C)(C)O2)cc1)C(=O)N[C@@H](Cc1cn(C(c2ccccc2)(c2ccccc2)c2ccccc2)cn1)C(=O)N[C@H](C(=O)N[C@@H](CCC(=O)NC(c1ccccc1)(c1ccccc1)c1ccccc1)C(=O)N[C@@H](CCCNC(=N)NS(=O)(=O)c1c(C)c(C)c2c(c1C)CC(C)(C)O2)C(=O)N[C@H](C(=O)N[C@@H](CCSC)C(N)=O)C(C)C)C(C)C
- ring closure, overall yield ([1]; 23-membered ring): 3%

Molecule: CC[C@H](C)[C@H](NC(=O)[C@H](Cc1c[nH]c2cc(Br)ccc12)NC(=O)[C@H](CCC(=O)OC(C)(C)C)NC(=O)[C@@H]1CCCN1C(=O)[C@H](CC(=O)NC(c1ccccc1)(c1ccccc1)c1ccccc1)NC(=O)[C@H](CCC(=O)OC(C)(C)C)NC(C)=O)C(=O)N[C@@H](CC(C)C)C(=O)N[C@@H](CC(=O)OC(C)(C)C)C(=O)N[C@@H](CCCNC(=O)c1ccc(B(O)O)cc1)C(=O)N[C@@H](Cc1cn(C(c2ccccc2)(c2ccccc2)c2ccccc2)cn1)C(=O)N[C@H](C(=O)N[C@@H](CCC(=O)NC(c1ccccc1)(c1ccccc1)c1ccccc1)C(=O)N[C@@H](CCCNC(=N)NS(=O)(=O)c1c(C)c(C)c2c(c1C)CC(C)(C)O2)C(=O)N[C@H](C(=O)N[C@@H](CCSC)C(N)=O)C(C)C)C(C)C
- ring closure, overall yield ([1]; 28-membered ring): 8%

Molecule: CC[C@H](C)[C@H](NC(=O)[C@H](Cc1c[nH]c2cc(Br)ccc12)NC(=O)[C@H](CCC(=O)OC(C)(C)C)NC(=O)[C@@H]1CCCN1C(=O)[C@H](CC(=O)NC(c1ccccc1)(c1ccccc1)c1ccccc1)NC(=O)[C@H](CCC(=O)OC(C)(C)C)NC(C)=O)C(=O)N[C@@H](CC(C)C)C(=O)N[C@@H](CC(=O)OC(C)(C)C)C(=O)N[C@@H](Cc1ccc(B2OC(C)(C)C(C)(C)O2)cc1)C(=O)N[C@@H](Cc1cn(C(c2ccccc2)(c2ccccc2)c2ccccc2)cn1)C(=O)N[C@H](C(=O)N[C@@H](CCC(=O)NC(c1ccccc1)(c1ccccc1)c1ccccc1)C(=O)N[C@@H](CCCNC(=N)NS(=O)(=O)c1c(C)c(C)c2c(c1C)CC(C)(C)O2)C(=O)N[C@H](C(=O)N[C@@H](CCSC)C(N)=O)C(C)C)C(C)C
- ring closure, overall yield ([1]; 24-membered ring): 4%

Molecule: CC[C@H](C)[C@H](NC(=O)[C@H](Cc1c[nH]c2cc(Br)ccc12)NC(=O)[C@H](CCC(=O)OC(C)(C)C)NC(=O)[C@@H]1CCCN1C(=O)[C@H](CC(=O)NC(c1ccccc1)(c1ccccc1)c1ccccc1)NC(=O)[C@H](CCC(=O)OC(C)(C)C)NC(C)=O)C(=O)N[C@@H](CC(C)C)C(=O)N[C@@H](CC(=O)OC(C)(C)C)C(=O)N[C@@H](CCCCNC(=O)c1ccc(B(O)O)cc1)C(=O)N[C@@H](Cc1cn(C(c2ccccc2)(c2ccccc2)c2ccccc2)cn1)C(=O)N[C@H](C(=O)N[C@@H](CCC(=O)NC(c1ccccc1)(c1ccccc1)c1ccccc1)C(=O)N[C@@H](CCCNC(=N)NS(=O)(=O)c1c(C)c(C)c2c(c1C)CC(C)(C)O2)C(=O)N[C@H](C(=O)N[C@@H](CCSC)C(N)=O)C(C)C)C(C)C
- ring closure, overall yield ([1]; 29-membered ring): 10%

Molecule: Ac-ENPESILDEHVQRVM-NH2
- MRE (deg cm2 dmol-1): -2860
- θ222 [2]: -4.29 mdeg
- [θ]222 (deg cm2 dmol-1) [3]: -42900

Molecule: Ac-Glu-Asn-Pro-Glu-Trp-Ile-Leu-Asp-Lys-His-Val-Gln-Arg-Val-Met-NH2 (Trp and Lys drawn as structures, side chains cross-linked by the 7-aryl-Trp staple)
- cleaved bond (Proteinase K): Gln-Arg
- not cleaved (Proteinase K): not hydrolysed after leucine within 120 min; also recorded: not hydrolysed after lysine within 120 min

Molecule: PESILDEHVQRVLRT (also: FITC label, site not given here) [fAxWt (FITC-labelled axin CBD peptide) 467-481]
- Kd (β-catenin): 1.19 µM
